Consider eleven compounds from US11285156B2, “Substituted piperazines as KRAS G12C inhibitors” (Amgen Inc., priority 2018, dated 2022).

As a reminder, the IC50 is the point on the concentration scale where inhibition reaches its midpoint.

Experiment [1] deals with GDP-bound KRAS protein (aa 1-169), containing both G12C and C118A amino acid substitutions (Homo sapiens (Human), UniProt P01116, C118A/G12C). The experiment is described as follows: Coupled nucleotide exchange assay (SOS-mediated nucleotide exchange, AlphaScreen). The settings on record: 5 min compound pre-incubation; for IC50: read-out: Coupled exchange IC50 (5 min; μM). The experiment is classed as biochemical. Background: In Alpha technology, singlet oxygen from a donor bead excites a nearby acceptor bead.
Chain of GDP-bound KRAS protein (aa 1-169), containing both G12C and C118A amino acid substitutions (P01116 other isoform, or with tags, fused parts or gaps G12C/C118A): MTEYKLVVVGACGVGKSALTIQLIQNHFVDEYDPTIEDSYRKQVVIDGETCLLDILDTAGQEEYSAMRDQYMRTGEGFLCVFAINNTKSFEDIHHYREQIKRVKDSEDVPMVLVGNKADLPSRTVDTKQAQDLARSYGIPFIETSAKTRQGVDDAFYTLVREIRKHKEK
Description: Coupled Nucleotide Exchange Assay:
Following compound pre-incubation, purified SOS protein (aa 564-1049) and GTP (Roche 10106399001) were added to the assay wells and incubated for an additional 30 min (for 5 min compound pre-incubation) or 1 hour (for 2 hour compound pre-incubation). […] The assay plates were then read on a PerkinElmer EnVision Multilabel Reader, using AlphaScreen® technology, and data were analyzed using a 4-parameter logistic model to calculate IC50 values.

Experiment [2] deals with Phosphorylation of ERK1/2 in A549 cells. The experiment is described as follows: Phospho-ERK1/2 MSD assay in A549 cells. Format: cell-based. The settings on record: read-out: p-ERK IC50 (2 h, A549; μM), 2 h compound treatment, A549 cells, EGF stimulated. The essentials:
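Dose-response treatment lasted 2 or 4 h in RPMI 1640/10% FBS at 37 °C. EGF-stimulated (10 ng/mL, 10 min) ERK1/2 phosphorylation was then quantified in cell lysates with a Meso Scale Discovery phospho-ERK1/2 assay.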

For experiment [3], the system named is Phosphorylation of ERK1/2 in MIA PaCa-2 cells. The experiment is described as follows: Phospho-ERK1/2 MSD assay in MIA PaCa-2 cells. Conditions: read-out: p-ERK IC50 (2 h, MiaPaCa-2; μM), 2 h compound treatment, MIA PaCa-2 cells, EGF stimulated. Format: cell-based. The method, boiled down:
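Phospho-ERK1/2 measured by MSD electrochemiluminescence kit in RIPA lysates of MIA PaCa-2 cells. Cells were treated with compound titrations for 2 or 4 h at 37 °C, 5% CO2, followed by a 10 min pulse of 10 ng/mL EGF.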

Like-named read-outs stand apart in the source and are kept apart here.

For `C=CC(=O)N1C[C@H](C)N(c2nc(=O)n(-c3c(Cl)ncnc3C(C)C)c3nc(-c4ccccc4C)c(Cl)cc23)C[C@H]1C` (single isomer, unassigned) [Example 102-6-1], the IC50 is 0.094 µM in experiment [1], more than 7.5 µM in experiment [2] and 0.056 µM in experiment [3].
As for `C=CC(=O)N1C[C@H](C)N(c2nc(=O)n(-c3c(C4CC4)ccnc3C(C)C)c3nc(-c4ccccc4C)c(Cl)cc23)C[C@H]1C` (single isomer, unassigned) [Example 124-9], the “Coupled exchange IC50 (5 min; μM)” value in experiment [1] was found to be 0.122 µM. Also, the IC50 was more than 7.5 µM in experiment [2] (Homo sapiens, A549, 2 h) and 0.169 µM in experiment [3].
In the case of `C=CC(=O)N1C[C@H](C)N(c2nc(=O)n(-c3c(C)ccnc3C(C)C)c3nc(-c4ccccc4C(=O)NC)c(Cl)cc23)C[C@H]1C` (atropisomer, axis not shown; (M)) [Example 92-27, (M)-2-[6-Chloro-4-[(2S,5R)-2,5-dimethyl-4-prop-2-enoyl-piperazin-1-yl]-1-(2-isopropyl-4-methyl-3-pyridyl)-2-oxo-pyrido[2,3-d]pyrimidin-7-yl]-N-methyl-benzamide], the IC50 in experiment [1] is 0.149 µM; in experiment [2] (Homo sapiens, A549, 2 h), more than 7.5 µM; in experiment [3] (Homo sapiens, MIA PaCa-2, 2 h), 0.735 µM.
Take `C=CC(=O)N1CCN(c2nc(=O)n(CC(C)(C)C)c3nc(-c4ccccc4F)c(Cl)cc23)CC1CC#N` (stereo not drawn) [Example 145-1, 2-[4-[6-Chloro-1-(2,2-dimethylpropyl)-7-(2-fluorophenyl)-2-oxo-pyrido[2,3-d]pyrimidin-4-yl]-1-prop-2-enoyl-piperazin-2-yl]acetonitrile]: the half-inhibitory concentration (IC50) in experiment [1] amounted to 2.07 µM; in experiment [2] (Homo sapiens, A549, 2 h), 5.75 µM; in experiment [3] it was 10 µM.
In the case of `C=CC(=O)N1C[C@H](C)N(c2nc(=O)n(-c3c(C)cc(P(C)(C)=O)cc3C(C)C)c3nc(-c4ccccc4F)c(Cl)cc23)C[C@H]1C` (single isomer, unassigned) [Example 102-7-1], the IC50 was 0.181 µM in experiment [1]; more than 7.5 µM in experiment [2] (Homo sapiens, A549, 2 h); 1.06 µM in experiment [3] (Homo sapiens, MIA PaCa-2, 2 h).
For `C=CC(=O)N1CCN(c2nc(=O)n(CC(C)(C)C)c3nc(-c4ccccc4F)c(Cl)cc23)CC1CC#N` (single isomer, unassigned) [Example 145-1-2, 2-[4-[6-Chloro-1-(2,2-dimethylpropyl)-7-(2-fluorophenyl)-2-oxo-pyrido[2,3-d]pyrimidin-4-yl]-1-prop-2-enoyl-piperazin-2-yl]acetonitrile], the half-maximal inhibitory concentration (IC50) in experiment [1] was determined as 1.15 µM; in experiment [2], 3.94 µM; in experiment [3], 1.05 µM.
Take `C=CC(=O)N1C[C@H](C)N(c2nc(=O)n(-c3c(C)ccnc3C(C)C)c3nc(-c4ccccc4C(C)O)c(Cl)cc23)C[C@H]1C` (mixture of isomers) [Example 92-43, (M)-6-Chloro-4-[(2S,5R)-2,5-dimethyl-4-prop-2-enoyl-piperazin-1-yl]-7-[2-[(1RS)-1-hydroxyethyl]phenyl]-1-(2-isopropyl-4-methyl-3-pyridyl)pyrido [2,3-d]pyrimidin-2-one]: the “Coupled exchange IC50 (5 min; μM)” value in experiment [1] was 0.054 µM. Besides, the IC50 was more than 7.5 µM in experiment [2] (Homo sapiens, A549, 2 h) and 0.076 µM in experiment [3] (Homo sapiens, MIA PaCa-2, 2 h).
`C=CC(=O)N1CCN(c2nc(=O)n(-c3c(C(C)C)ccnc3C(C)C)c3nc(-c4ccccc4C)c(Cl)cc23)[C@@H](C)C1` (single isomer, unassigned) [Example 124-10]: the IC50 is 0.046 µM in experiment [1]; more than 7.5 µM in experiment [2] (Homo sapiens, A549, 2 h); 0.049 µM in experiment [3] (Homo sapiens, MIA PaCa-2, 2 h).
The matching figures for `C=CC(=O)N1C[C@H](C)N(c2nc(=N)n(-c3ccccc3C(C)C)c3nc(-c4ccccc4F)c(Cl)cc23)C[C@H]1C` [Example 185, 1-((2R,5S)-4-(6-Chloro-7-(2-fluorophenyl)-2-imino-1-(2-isopropylphenyl)-1,2-dihydropyrido[2,3-d]pyrimidin-4-yl)-2,5-dimethylpiperazin-1-yl)prop-2-en-1-one]: 0.055 µM, more than 7.5 µM and 0.08 µM.
On the same counts, the results for `C=CC(=O)N1C[C@H](C)N(c2nc(=O)n(-c3c(C)ccnc3C(C)C)c3nc(-c4ccccc4OC(F)F)c(Cl)cc23)C[C@H]1C` (atropisomer, axis not shown; (M)) [Example 92-14, (M)-6-Chloro-7-[2-(difluoromethoxy)phenyl]-4-[(2S,5R)-2,5-dimethyl-4-prop-2-enoyl-piperazin-1-yl]-1-(2-isopropyl-4-methyl-3-pyridyl)pyrido [2,3-d]pyrimidin-2-one] are 0.121 µM, more than 7.5 µM and 0.074 µM.
The matching figures for `C=CC(=O)N1C[C@H](C)N(c2nc(=O)n(-c3c(C)ccnc3C(C)C)c3nc(-c4ccccc4OC)c(Cl)cc23)C[C@H]1C` (atropisomer, axis not shown; (M)) [Example 92-67, (M)-6-Chloro-4-[(2S,5R)-2,5-dimethyl-4-prop-2-enoyl-piperazin-1-yl]-1-(2-isopropyl-4-methyl-3-pyridyl)-7-(2-methoxyphenyl) pyrido[2,3-d]pyrimidin-2-one]: 0.13 µM, more than 7.5 µM and 0.062 µM.
